Assay results as given in US10683334B2 (INDIANA UNIVERSITY RESEARCH AND TECHNOLOGY CORPORATION, priority 2016, dated 2020).
pEC50: −log10 of the molar value. Square brackets hold non-standard residues; d marks the D form. Peptide text beside a SMILES is read from it. Aib = CC(C)(N)C(=O)O

Tests used:
[1] = system: insulin induced hypoglycemia in diabetic pigs; experiment: Pig study: reversal of insulin induced hypoglycemia; assay type: in vivo, Yucatan miniature swine; details: insulin detemir 0.5 U/kg s.c. at 0 min, peptide 10 nmoles/kg at 240 min
Protocol: Male diabetic Yucatan miniature swine (4 animals/group) were fed and administered NPH insulin at 8:00 AM and at 12 h prior to the initiation of the study, then fasted until the completion of the final blood glucose measurements. Insulin NPH doses were adjusted based on glucose levels and the animals were randomized to achieve balanced glucose levels across groups. […] Blood glucose was measured at −5, 0 (Pre-Dose), 30, 60, 120, 240, 245, 250, 260, 280, 300, 330, 360 and 480 minutes using a handheld glucometer. The same instrument was used for all animals and two readings were taken per time point to insure consistency. The statistical analysis of the results obtained in the in vivo experiments was performed using Prism 6.0h (GraphPad Software, Calif.) applying regular two-way ANOVA followed by Sidak multiple comparison test between the two treatments. […] The results are presented as means±SEM of four replicates per group.

glucagon receptor = glucagon receptor (Homo sapiens, UniProt P47871); experiment: Luciferase-based glucagon assay (cAMP reporter, HEK293 cells)
Protocol: At the end of the incubation 100 microliters of LucLite luminescence substrate reagent (Perkin-Elmer, Wellesley, Mass.) were added to each well. […] The luminescent light output indicates activation of the luciferase reporter gene, which in turn is a measure of the activation of the receptor.

[2] = Thioflavin-T fluorescence assay (fibrillation/aggregation); assay type: physicochemical
Protocol: The Thioflavin T (ThT) Assay measures changes of in fluorescence intensity of ThT upon binding to amyloid fibrils. The enhanced fluorescence can be observed by fluorescence microscopy or by fluorescent spectroscopy. The spectroscopic assay is commonly used to monitor fibrilization over time, but the assay is not strictly quantitative and differences in binding have been observed for samples after lyophilization.
Prepare a ThT stock solution by adding 8 mg ThT to 10 mL phosphate buffer (10 mM phosphate, 150 mM NaCl, pH 7.0) and filter through a 0.2 μm syringe filter. This stock solution should be stored in the dark and is stable for about one week.
Dilute the stock solution into the phosphate buffer (1 mL ThT stock to 50 mL buffer) on the day of analysis to generate the working solution.
Add an aliquot of untreated protein solution (5-10 μL) to the cuvette, stir for 1 min, and measure the intensity over 60 s. This serves as the control sample. […]
Lyophilized peptides were dissolved in appropriate buffer at concentration ˜8-9 mg/mL (1-5 in 0.1N hydrochloric acid; 7, 9 and 11 in 50 mM Sodium Phosphate, 150 mM of sodium chloride, pH7.4). Exact concentration was calculated based on UV absorbance at λ=280 nm and all samples were dissolved further down to equal concentration of 5 mg/mL. […] Fibrillation was measured according to modified Thioflavin-T fluorescence assay protocol. […]

physchem = experiment: physchem
Protocol: 1 or 5 mg of pre-lyophilized peptide in 2 mL Eppendorf tube was treated with 200-400 uL of phosphate buffer (PBS: 50 mM sodium phosphate, 150 mM of sodium chloride, pH7.4). Samples were then vortexed and sonicated for 10 min then equilibrated at RT for 1H, and then centrifuged at 10 krpms for 10 min Concentration of the peptides in obtained supernatant was determined by measuring UV absorbance at λ=280 nm. […] Concentration in aliquots was reassessed as previously with UV absorbance. Change in peptide concentration was evaluated after 48 h and 7 days of storage at 4° C.

hGLP-1R = hGLP-1R (Homo sapiens, UniProt P43220); experiment: cAMP luciferase reporter assay, activity at the GLP-1 receptor (Table 3)
hGLP-1R, sequence (P43220 24-463): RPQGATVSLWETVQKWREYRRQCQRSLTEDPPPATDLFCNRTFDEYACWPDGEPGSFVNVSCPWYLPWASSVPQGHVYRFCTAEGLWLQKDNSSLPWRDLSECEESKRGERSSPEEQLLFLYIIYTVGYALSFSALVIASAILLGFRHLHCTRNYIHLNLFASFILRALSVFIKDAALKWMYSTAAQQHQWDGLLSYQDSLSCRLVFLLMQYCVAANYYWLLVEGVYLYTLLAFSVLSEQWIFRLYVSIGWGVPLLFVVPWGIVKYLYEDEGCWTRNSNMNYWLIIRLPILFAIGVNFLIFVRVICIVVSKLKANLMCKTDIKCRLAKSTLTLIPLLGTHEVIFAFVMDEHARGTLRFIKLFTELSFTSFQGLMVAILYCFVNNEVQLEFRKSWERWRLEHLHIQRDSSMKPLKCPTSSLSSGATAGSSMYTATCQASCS

glucagon receptor, sequence (P47871 26-477): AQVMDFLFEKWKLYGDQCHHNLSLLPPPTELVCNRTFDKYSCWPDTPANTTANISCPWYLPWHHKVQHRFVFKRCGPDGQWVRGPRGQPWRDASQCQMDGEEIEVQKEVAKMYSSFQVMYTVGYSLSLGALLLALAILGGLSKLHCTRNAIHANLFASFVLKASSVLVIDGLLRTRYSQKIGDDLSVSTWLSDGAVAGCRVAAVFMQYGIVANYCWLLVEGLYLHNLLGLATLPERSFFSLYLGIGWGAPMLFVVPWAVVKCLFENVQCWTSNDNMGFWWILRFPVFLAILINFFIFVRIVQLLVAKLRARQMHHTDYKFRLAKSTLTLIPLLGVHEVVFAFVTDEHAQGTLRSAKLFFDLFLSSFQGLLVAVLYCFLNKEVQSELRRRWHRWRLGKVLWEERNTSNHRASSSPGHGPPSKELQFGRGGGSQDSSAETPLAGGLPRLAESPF

## CSCC[C@H](NC(=O)[C@H](CC(C)C)NC(=O)[C@H](Cc1c[nH]c2ccccc12)NC(=O)[C@H](CCC(N)=O)NC(=O)[C@@H](NC(=O)[C@H](Cc1ccccc1)NC(=O)[C@H](CC(=O)O)NC(=O)[C@H](CCC(N)=O)NC(=O)[C@H](C)NC(=O)[C@H](CCCNC(=N)N)NC(=O)[C@H](CCCNC(=N)N)NC(=O)C(C)(C)NC(=O)[C@H](CC(=O)O)NC(=O)[C@H](CC(C)C)NC(=O)[C@H](Cc1cccnc1)NC(=O)[C@H](CCCCN)NC(=O)[C@H](CO)NC(=O)[C@H](Cc1cccnc1)NC(=O)[C@H](CC(=O)O)NC(=O)[C@H](CO)NC(=O)[C@@H](NC(=O)[C@H](Cc1cccnc1)NC(=O)[C@@H](NC(=O)CNC(=O)[C@H](CCC(N)=O)NC(=O)[C@H](CO)NC(=O)[C@@H](N)Cc1cnc[nH]1)[C@@H](C)O)[C@@H](C)O)C(C)C)C(=O)N[C@@H](CC(N)=O)C(=O)N[C@H](C(=O)O)[C@@H](C)O [Compound 9, HSQGTXTSDXSKXLDZRRAQDFVQWLMNT]
[1]
  reversal of insulin induced hypoglycemia (blood glucose): reverse insulin induced hypoglycemia
Glucagon receptor; luciferase-based glucagon assay
  in vitro efficacy / potency (in words): fully potent
Glucagon receptor; read-out: EC50 [nM] (SDV), luciferase-based glucagon assay, SDV in brackets
  EC50: 0.0714 nM
Glucagon receptor; relative to native glucagon
  % bioactivity of GCG: 28%
[2]; 5 mg/mL, 37° C. 48H without agitation, then 40° C. 48H with agitation
  resistance to fibrillation (thioflavin-T fluorescence, FIG. 2): resistant to fibrillation
[2]; 45 hours at 37° C., pH 7.0 in phosphate buffer
  stability / resistance to fibrillation (ThT assay, FIG. 8): showed stability
physchem; pH 7
  solubility: > 10000 µg/mL
physchem; pH 7.4
  solubility at 1 h: > 10000 µg/mL

## CSCC[C@H](NC(=O)[C@H](CC(C)C)NC(=O)[C@H](Cc1c[nH]c2ccccc12)NC(=O)[C@H](CCC(N)=O)NC(=O)[C@@H](NC(=O)[C@H](Cc1ccccc1)NC(=O)[C@H](CC(=O)O)NC(=O)[C@@H](CCC(N)=O)NC(=O)[C@H](C)NC(=O)[C@H](CCCNC(=N)N)NC(=O)[C@H](CCCNC(=N)N)NC(=O)C(C)(C)NC(=O)[C@H](CC(=O)O)NC(=O)[C@H](CC(C)C)NC(=O)[C@H](Cc1ccc(O)cc1)NC(=O)[C@H](CCCCN)NC(=O)[C@H](CO)NC(=O)[C@H](Cc1cccnc1)NC(=O)[C@H](CC(=O)O)NC(=O)[C@H](CO)NC(=O)[C@@H](NC(=O)[C@H](Cc1ccccc1)NC(=O)[C@@H](NC(=O)CNC(=O)[C@H](CCC(N)=O)NC(=O)[C@H](CO)NC(=O)[C@@H](N)Cc1c[nH]cn1)[C@@H](C)O)[C@@H](C)O)C(C)C)C(=O)N[C@@H](CC(N)=O)C(=O)N[C@H](C(=O)O)[C@@H](C)O [SEQ ID NO: 971, 3-Pal10, Aib16, q20]
hGLP-1R
  pEC50: < 8.00

## CSCC[C@H](NC(=O)[C@H](CC(C)C)NC(=O)[C@H](Cc1c[nH]c2ccccc12)NC(=O)[C@H](CCC(N)=O)NC(=O)[C@@H](NC(=O)[C@H](Cc1ccccc1)NC(=O)[C@H](CC(=O)O)NC(=O)[C@@H](CCC(N)=O)NC(=O)[C@H](C)NC(=O)[C@H](CCCNC(=N)N)NC(=O)[C@H](CCCNC(=N)N)NC(=O)C(C)(C)NC(=O)[C@H](CC(=O)O)NC(=O)[C@H](CC(C)C)NC(=O)[C@H](Cc1ccc(O)cc1)NC(=O)[C@H](CCCCN)NC(=O)[C@H](CO)NC(=O)[C@H](Cc1ccc(O)cc1)NC(=O)[C@H](CC(=O)O)NC(=O)[C@H](CO)NC(=O)[C@@H](NC(=O)[C@H](Cc1ccccc1)NC(=O)[C@@H](NC(=O)CNC(=O)[C@H](CCC(N)=O)NC(=O)[C@H](CO)NC(=O)[C@@H](N)Cc1c[nH]cn1)[C@@H](C)O)[C@@H](C)O)C(C)C)C(=O)N[C@@H](CC(=O)O)C(=O)N[C@@H](CCC(=O)O)C(=O)O [SEQ ID NO: 981, Aib16, q20, D28, E29] (H-HSQGTFTSDYSKYLD[Aib]RRA[dQ]DFVQWLMDE-OH; N-terminus and C-terminus assumed)
hGLP-1R
  pEC50: < 8.00
